# Experimental data reported in ChEMBL document CHEMBL2074577, “Resistance to mitoxantrone in multidrug-resistant MCF7 breast cancer cells: evaluation of mitoxantrone transport and the role of multidrug resistance protein family proteins” (Cancer Res, 2001).
# Target: Multidrug resistance-associated protein 1 (Homo sapiens, UniProt P33527)
# Experiment: TP_TRANSPORTER: efflux in MCF7/VP and MCF cells
# Assay type: functional, cell-based
# Sequence of Multidrug resistance-associated protein 1 (P33527 whole entry): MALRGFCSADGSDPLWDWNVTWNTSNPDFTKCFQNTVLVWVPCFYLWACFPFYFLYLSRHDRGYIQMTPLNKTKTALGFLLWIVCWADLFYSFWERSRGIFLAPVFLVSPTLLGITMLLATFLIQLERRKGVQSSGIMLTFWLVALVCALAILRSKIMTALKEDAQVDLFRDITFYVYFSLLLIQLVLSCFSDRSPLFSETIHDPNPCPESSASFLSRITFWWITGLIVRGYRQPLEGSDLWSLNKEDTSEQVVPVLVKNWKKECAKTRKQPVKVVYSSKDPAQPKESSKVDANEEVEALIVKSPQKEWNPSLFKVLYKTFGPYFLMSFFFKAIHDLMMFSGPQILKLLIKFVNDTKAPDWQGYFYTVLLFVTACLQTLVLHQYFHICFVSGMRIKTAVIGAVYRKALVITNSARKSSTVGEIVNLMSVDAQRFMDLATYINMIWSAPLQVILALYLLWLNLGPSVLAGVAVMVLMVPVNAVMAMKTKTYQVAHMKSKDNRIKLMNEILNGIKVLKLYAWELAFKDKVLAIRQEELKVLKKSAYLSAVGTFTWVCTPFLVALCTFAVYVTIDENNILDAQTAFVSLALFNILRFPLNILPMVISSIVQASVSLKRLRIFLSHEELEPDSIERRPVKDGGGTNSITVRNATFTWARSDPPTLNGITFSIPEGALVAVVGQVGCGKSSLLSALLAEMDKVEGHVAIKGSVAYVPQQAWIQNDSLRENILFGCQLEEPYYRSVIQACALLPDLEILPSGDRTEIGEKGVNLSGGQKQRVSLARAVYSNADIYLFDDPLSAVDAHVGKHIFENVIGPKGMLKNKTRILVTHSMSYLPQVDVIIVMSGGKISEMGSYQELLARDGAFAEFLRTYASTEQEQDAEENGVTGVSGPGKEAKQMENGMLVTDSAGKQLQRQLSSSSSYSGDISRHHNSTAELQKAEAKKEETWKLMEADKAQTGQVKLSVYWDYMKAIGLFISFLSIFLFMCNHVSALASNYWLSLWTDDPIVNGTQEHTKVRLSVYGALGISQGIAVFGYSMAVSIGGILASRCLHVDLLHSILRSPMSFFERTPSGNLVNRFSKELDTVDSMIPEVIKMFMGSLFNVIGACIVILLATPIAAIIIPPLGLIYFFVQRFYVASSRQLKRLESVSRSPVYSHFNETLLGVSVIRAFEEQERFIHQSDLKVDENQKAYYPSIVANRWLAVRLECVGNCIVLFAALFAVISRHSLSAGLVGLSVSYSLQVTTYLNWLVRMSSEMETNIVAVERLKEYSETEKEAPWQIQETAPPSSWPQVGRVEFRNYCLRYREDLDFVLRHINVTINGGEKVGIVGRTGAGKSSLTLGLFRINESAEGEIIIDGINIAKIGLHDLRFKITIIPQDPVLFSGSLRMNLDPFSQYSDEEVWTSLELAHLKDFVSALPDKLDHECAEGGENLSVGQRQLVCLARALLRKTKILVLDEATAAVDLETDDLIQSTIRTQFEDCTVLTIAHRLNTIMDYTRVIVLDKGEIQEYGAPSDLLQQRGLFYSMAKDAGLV
structure (smiles),measurement,value
O=C1c2c(O)ccc(O)c2C(=O)c2c(NCCNCCO)ccc(NCCNCCO)c21 [MITOXANTRONE],Activity,substrate [+]
